# [5mC] = 5-methylcytosine
# Assays:
# murine DNA 5-C-MTase = assay: Methylation assay: methyl transfer from [methyl-3H]AdoMet to ODNs by DNA methyltransferase from Friend erythroleukemia cell nuclei; assay type: biochemical; details: for RELATIVE ACTIVITY (rate of methylation relative to an equal amount of AS): Table 6, single-stranded ODN; for ACTIVITY (cpm), DNA methylase (FL): Table 5, S + M1 and its 5-fluorocytosine containing double stranded analogs; for rate of methylation relative to unmethylated A (times): ODNs with 5MeC in position 7 designed to form or not to form the stem-loop
# Method: The phosphoramidite of 5-fluorodeoxycytidine (5FdC) and unmodified 5-methyl deoxycytosine (5MdC) and 5FC-containing ODNs were synthesized and purified as described in Marasco, C. J. et al., J. Org. […] 5MdC phosphoramidite is commercially available. ss ODNs were heated to 90° C. for 10 min and quickly chilled on ice immediately prior to assay. […] For ds ODNs, an equimolar mixture of complementary ODNs was heated to 90° C. for 10 min and slowly cooled to room temperature.
# Preparation of Murine DNA 5-C-MTase. The DNA 5-C-MTase used in these studies was the 100,000×g supernatant of a 0.3M NaCl extract of Friend erythroleukemia cell nuclei.
# Methylation Assay. Reaction mixtures (50 μl ) in 0.1M imidazole, pH 7.4/20 mM EDTA/0.5 mM dithiothreitol contained 0.5 μg of each ODN indicated, ≈0.6 units of DNA 5-C-MTase (1 unit transfers 1 pmol to A (AS)·A'Mp (M1) per min; see Table 7), and 2.8 μCi (1 Ci=37 GBq) of [methyl-^3 H]AdoMet (AdoMet=S-adenosylmethionine) (8 μM). […] For accuracy, methylation rates <5 pmol/30 min were measured in quadrupled reaction mixtures (200 μl ). After incubation for 30 min at 37° C., ODNs were processed for quantitation of radiolabel as described (20) with 25 μg of salmon sperm DNA added as carrier prior to perchloric acid precipitation.
# All assays were performed in duplicate.
# [1] = target: DNA 5-C-methyltransferase (murine, Friend erythroleukemia cells) (Mus musculus, UniProt P13864 P13864:1-1620); assay: methylation rate; details: protein: extract; tags: 0.3 M NaCl nuclear extract, 100,000 x g supernatant; single approx. 190 kDa species forming covalent complexes
# Sequence of DNA 5-C-methyltransferase (murine, Friend erythroleukemia cells) (P13864 whole entry, one chain of several): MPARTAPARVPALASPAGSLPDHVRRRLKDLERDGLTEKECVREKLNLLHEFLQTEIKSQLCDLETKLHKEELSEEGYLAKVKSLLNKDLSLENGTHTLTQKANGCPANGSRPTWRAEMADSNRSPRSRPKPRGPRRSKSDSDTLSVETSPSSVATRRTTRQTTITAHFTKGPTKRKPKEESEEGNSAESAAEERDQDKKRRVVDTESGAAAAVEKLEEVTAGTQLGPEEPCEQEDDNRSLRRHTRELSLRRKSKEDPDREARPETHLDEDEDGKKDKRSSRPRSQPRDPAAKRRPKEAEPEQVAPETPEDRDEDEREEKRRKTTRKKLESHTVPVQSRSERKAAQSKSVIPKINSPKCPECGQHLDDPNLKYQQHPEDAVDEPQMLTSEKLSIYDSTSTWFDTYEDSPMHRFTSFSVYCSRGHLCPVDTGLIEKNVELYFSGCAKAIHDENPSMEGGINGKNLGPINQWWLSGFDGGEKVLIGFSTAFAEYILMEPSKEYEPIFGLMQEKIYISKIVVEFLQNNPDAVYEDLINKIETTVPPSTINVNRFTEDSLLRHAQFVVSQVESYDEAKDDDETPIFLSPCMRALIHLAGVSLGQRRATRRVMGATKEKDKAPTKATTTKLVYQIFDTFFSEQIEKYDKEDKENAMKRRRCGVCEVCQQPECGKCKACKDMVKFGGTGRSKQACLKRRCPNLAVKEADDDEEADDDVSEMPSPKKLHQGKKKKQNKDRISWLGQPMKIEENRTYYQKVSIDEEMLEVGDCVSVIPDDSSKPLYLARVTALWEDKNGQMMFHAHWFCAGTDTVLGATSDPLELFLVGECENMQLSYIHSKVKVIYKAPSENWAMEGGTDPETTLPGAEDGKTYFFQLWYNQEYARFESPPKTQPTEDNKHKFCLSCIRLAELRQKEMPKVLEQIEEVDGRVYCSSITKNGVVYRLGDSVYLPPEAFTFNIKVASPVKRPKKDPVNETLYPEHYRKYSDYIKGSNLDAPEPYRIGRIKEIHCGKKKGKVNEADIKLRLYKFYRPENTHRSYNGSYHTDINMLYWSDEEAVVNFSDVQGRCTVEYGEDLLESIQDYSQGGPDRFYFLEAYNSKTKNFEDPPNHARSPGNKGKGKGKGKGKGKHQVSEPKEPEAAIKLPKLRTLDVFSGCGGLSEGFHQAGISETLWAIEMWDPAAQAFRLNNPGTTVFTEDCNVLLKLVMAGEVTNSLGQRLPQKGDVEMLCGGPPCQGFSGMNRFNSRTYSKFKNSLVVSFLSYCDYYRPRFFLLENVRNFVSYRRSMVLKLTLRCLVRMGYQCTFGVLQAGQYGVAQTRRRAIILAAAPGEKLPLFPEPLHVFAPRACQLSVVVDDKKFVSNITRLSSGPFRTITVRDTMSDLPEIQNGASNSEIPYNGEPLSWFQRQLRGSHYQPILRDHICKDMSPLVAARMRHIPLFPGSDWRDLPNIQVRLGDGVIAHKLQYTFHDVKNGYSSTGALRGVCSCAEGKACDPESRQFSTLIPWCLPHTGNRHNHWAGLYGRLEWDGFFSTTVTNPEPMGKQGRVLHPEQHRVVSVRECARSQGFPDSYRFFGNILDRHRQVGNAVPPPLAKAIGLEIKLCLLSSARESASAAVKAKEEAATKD
# [2] = Table 10, ss ODNs with 5 mC and 5 FC substitutions
molecule,measurement,setting,value
"5' ATTGCGNATTCCGGATCCGCGATC 3' (5-methylcytosine at 7, further chemistry not given here) [ASM7, ODN A (AS) with 5-methylcytosine (N) at position 7]",RELATIVE ACTIVITY (rate of methylation relative to an equal amount of AS),murine DNA 5-C-MTase,170
same,Rate of methylation,"murine DNA 5-C-MTase; Table 7, phosphorothioate end capped oligomers, standard cell free enzyme assay","72,010 cpm/μg oligo/30 min"
same,RATE (rate of methylation relative to A),"murine DNA 5-C-MTase; Table 9, ss ODNs with 5MeC substituted for C at the sites given",140
same,RATE (rate of methylation relative to A),murine DNA 5-C-MTase; [2],130
same,stimulation of the rate of methylation by phosphorothioate capping,murine DNA 5-C-MTase; activity of D compared with C,more than 50%
"5' ATTGCGNATTCCGGATCRGCGATC 3' (5-methylcytosine at 7, 5-fluorocytosine at 18, further chemistry not given here) [ASM7 F18, AS with 5-methylcytosine (N) at 7 and 5-fluorocytosine (R) at 18]",inhibition of DNA methyltransferase (in words),murine DNA 5-C-MTase,potent
same,RELATIVE ACTIVITY (rate of methylation relative to an equal amount of AS),murine DNA 5-C-MTase,3
same,RATE (rate of methylation relative to A),murine DNA 5-C-MTase; [2],3.2
"5' GATCGCGGATCCGGAATGNGCAAT 3' (5-fluorocytosine, further chemistry not given here) [Seq. ID #14]","ACTIVITY (cpm), DNA methylase (FL)",murine DNA 5-C-MTase,"36,000 cpm"
"5' GATCGCGGATCNGGAATGCGCAAT 3' (5-fluorocytosine, further chemistry not given here) [Seq. ID #13]","ACTIVITY (cpm), DNA methylase (FL)",murine DNA 5-C-MTase,"28,000 cpm"
"5' GATCGCGGATNCGGAATGCGCAAT 3' (5-fluorocytosine, further chemistry not given here) [Seq. ID #12]","ACTIVITY (cpm), DNA methylase (FL)",murine DNA 5-C-MTase,"140,000 cpm"
"structure 6: ODN with 5MeC in position 7 that forms a stem-loop with the same relationship between C7 and C18 as A (FIG. 7, 8) (DNA ATGACGCACCTCGTTGACGCGCTA; DNA, [5mC] at 7, backbone not given here)",rate of methylation relative to unmethylated A (times),murine DNA 5-C-MTase,> 300
"structure 8: ODN with 5MeC in position 7 that forms a homodimer but no stem-loop analogous to structures 5 and 6 (FIG. 9) (DNA ATTGCGCTACTCGGATCCGGCCAT; DNA, [5mC] at 7, backbone not given here)",rate of methylation relative to unmethylated A (times),murine DNA 5-C-MTase,same rate as unmethylated A
"GATCGCGGATCCGGAATGCGCAAT (ssDNA, 5mC at 12) [A' 5mC12]",binding signal,[1],67 relative to A
"ATTGCGCATTCCGGATCCGCGATC (ssDNA, 5mC at 20) [ASM20]",binding signal,[1],2.5 relative to A
"GATCGCGGATCCGGAATGCGCAAT (ssDNA, 5mC at 6) [A' 5mC6]",binding signal,[1],42 relative to A
"ATTGCGCATTCCGGATCCGCGATC (ssDNA, 5mC at 18) [ASM18]",binding signal,[1],12 relative to A
"GATCGCGGATCCGGAATGCGCAAT (ssDNA, 5mC at 11) [A' 5mC11]",binding signal,[1],1.7 relative to A
"ATTGCGCATTCCGGATCCGCGATC (ssDNA, 5mC at 17) [ASM17]",binding signal,[1],3.5 relative to A
"GATCGCGGATCCGGAATGCGCAAT (ssDNA, 5mC at 19) [A' 5mC19]",binding signal,[1],1 relative to A
"GATCGCGGATCCGGAATGCGCAAT (ssDNA, 5mC at 4) [A' 5mC4]",binding signal,[1],0.4 relative to A
"GATCGCGGATCCGGAATGCGCAAT (ssDNA, 5mC at 21) [A' 5mC21]",binding signal,[1],37 relative to A
"GATCGCGGATCCGGAATGCGCAAT (ssDNA, 5mC at 11,21) [M4 (SMx)]",binding signal,[1],75 relative to A
